Source: publication PMC6218639, “The calcium sensitizer drug MCI-154 binds the structural C-terminal domain of cardiac troponin C” (Biochemistry and Biophysics Reports, 2018)

Molecular target: T1, cardiac troponin C (cTnC) (Homo sapiens, UniProt P63316, C35S/C84S)
T1 construct: gene TNNC1; cTnC residues 1–161
Test: 2D 1H, […]-HSQC NMR titration (KD […]), confirmed by ITC
Format: binding

O=C1CCC(c2ccc(Nc3ccncc3)cc2)=NN1 [MCI-154, 6-(4-(pyridin-4-ylamino)phenyl)-4,5-dihydropyridazin-3(2H)-one]
Kd: 500 ± 100 µM
